# Source: patent publication EP1948196B1, “USE OF TETRAORGANOSILICON COMPOUNDS” (Salama, Zoser B., priority 2005, dated 2007)
# Where two headings read alike, the source gives them in different places. Numbered stars: 1 amine (or outer) side, 2 acyl side, 3 side chain; on linkers, the order of the positions; unused ones are H or OH. Bridge positions count the residues as written; N and C are the ends. Peptide text beside a SMILES is read from it. I, II: the chains in the order shown. X2 = c1ccc([Si](O[*:1])(O[*:2])c2ccccc2)cc1; OSiEt2O = CC[Si](CC)(O[*:1])O[*:2]; X1 = C[Si](C)(O[*:1])O[*:2]
# Columns and labels:
# [1] = system: Osteosarkome; assay: Effect on osteosarcomas
# [2] = system: Rhino-Viren; assay: Antiviral effect; details: in particular as vesicles holding antisense constructs
# [3] = system: Angiosarkome; assay: Effect on angiosarcomas
# [4] = system: Seminome; assay: Effect on seminomas
# [5] = system: Hepatitis B-Viren; assay: Antiviral effect; details: in particular as vesicles holding antisense constructs
# [6] = system: Plattenepihtelkarzinomen oder Plasmozytomen; assay: Effect against metastasis in rats; format: in vivo; details: in Ratten
# [7] = system: Angiosarkome; assay: Effect on angiosarcomas; remark: listed apart in the source
# [8] = system: BxPC3 (pankreatisches Adenokarzinom); assay: MTT test, triplicate, two-fold dilutions; format: cell-based; details: Homo sapiens
# Experimental: (§1) Die Silan wurden in Ethanol aufgelöst und in Zellkulturmedien in Konzentrationen von bis zu 500 µg/ml resuspendiert. Es wurden MTT Tests in dreifacher Ausführung durchgeführt, für welche doppelte Lösungen (7 Schritte) und colo205 (Kofon-Karzinom), BxPC3 (pankreatisches Adenokarzinom) sowie T47D (Brustkrebs) benutzt wurden.
# [9] = system: T47D (Brustkrebs); assay: MTT test, triplicate, two-fold dilutions; format: cell-based; details: Homo sapiens, T47D, read-out: IC50 T47D
# Experimental: as §1
# [10] = system: colo205 (Kofon-Karzinom); assay: MTT test, triplicate, two-fold dilutions; format: cell-based; details: Homo sapiens
# Experimental: as §1
# [11] = system: Lymphome; assay: Effect on lymphomas
# [12] = COLO 205, read-out: IC50 Colo205
# [13] = BXPC-3, up to 500 µg/ml, read-out: IC50 BxPC3
# [14] = COLO 205, up to 500 µg/ml, read-out: IC50 Colo205
molecule,measurement,setting,value
CCCCCCCCCCCCCCCCC(=O)O[Si](OC(=O)CCCCCCCCCCCCCCCC)(c1ccccc1)c1ccccc1 [Di(heptadecanoyloxy)diphenylsilan],Wirkung auf Osteosarkome,[1],zeigen eine Wirkung
same,Wirkung gegen Rhino-Viren,[2],zeigen eine Wirkung
CCCCCCCCCCCCCC(=O)O[Si](CCC)(CCC)OC(=O)CCCCCCCCCCCCC [Di(tetradecanoyloxy)dipropylsilan],Wirkung gegen Angiosarkome,[3],zeigen eine Wirkung
same,Wirkung auf Seminome,[4],zeigen eine Wirkung
same,Wirkung gegen Hepatitis B-Viren,[5],zeigen eine Wirkung
CCCCCCCCC(=O)O[Si](CC)(CC)OC(=O)CCCCCCCC [Di(nonanoyloxy)diethyisilan],Wirkung gegen die Metastasierung von Plattenepihtelkarzinomen oder Plasmozytomen,[6],zeigen eine Wirkung
CC/C=C\C/C=C\C/C=C\CCCCCCCC(=O)O[Si](OC(=O)CCCCCCC/C=C\C/C=C\C/C=C\CC)(c1ccccc1)c1ccccc1 [Di(linolenoylooxy)diphenylsilan],Wirkung auf Osteosarkome,[1],zeigen eine Wirkung
same,Wirkung gegen Rhino-Viren,[2],zeigen eine Wirkung
CCCCCCCCCCCCCCC(=O)O[Si](CCC)(CCC)OC(=O)CCCCCCCCCCCCCC [Di(pentadecanoyloxy)dipropylsilan],Wirkung gegen Angiosarkome,[3],zeigen eine Wirkung
same,Wirkung auf Seminome,[4],zeigen eine Wirkung
same,Wirkung gegen Hepatitis B-Viren,[5],zeigen eine Wirkung
CCCCCCCCC(=O)O[Si](OC(=O)CCCCCCCC)(c1ccccc1)c1ccccc1 [Di(nonanoyloxy)diphenylsilan],Wirkung auf Osteosarkome,[1],zeigen eine Wirkung
same,Wirkung gegen Rhino-Viren,[2],zeigen eine Wirkung
CC(C)[C@H](N)C(=O)N[C@H](C(=O)N[C@H](C(=O)N[C@H](C(=O)N[C@H](C(=O)N[C@H](C(=O)N[C@H](C(=O)N[C@H](C(=O)N[C@H](C(=O)O[Si](OC(=O)[C@@H](NC(=O)[C@@H](NC(=O)[C@@H](NC(=O)[C@@H](NC(=O)[C@@H](NC(=O)[C@@H](NC(=O)[C@@H](NC(=O)[C@@H](NC(=O)[C@@H](N)C(C)C)C(C)C)C(C)C)C(C)C)C(C)C)C(C)C)C(C)C)C(C)C)C(C)C)(c1ccccc1)c1ccccc1)C(C)C)C(C)C)C(C)C)C(C)C)C(C)C)C(C)C)C(C)C)C(C)C [Diphenyl bis(nonavalyl)silylester] (I: H-VVVVVVVVV / II: H-VVVVVVVVV; linker I:C-II:C via X2),Wirkung gegen Angiosarkome,[7],zeigen eine Wirkung
CC(C)[C@H](N)C(=O)N[C@H](C(=O)N[C@H](C(=O)N[C@H](C(=O)O[Si](OC(=O)[C@@H](NC(=O)[C@@H](NC(=O)[C@@H](NC(=O)[C@@H](N)C(C)C)C(C)C)C(C)C)C(C)C)(c1ccccc1)c1ccccc1)C(C)C)C(C)C)C(C)C [Diphenyl bis(tetravalyl)silylester],Wirkung gegen Angiosarkome,[7],zeigen eine Wirkung
CC[Si](CC)(OC(=O)CNC(=O)CNC(=O)CNC(=O)CNC(=O)CNC(=O)CN)OC(=O)CNC(=O)CNC(=O)CNC(=O)CNC(=O)CNC(=O)CN [Diethyl bis(hexaglycyl)Silylester],Wirkung gegen Angiosarkome,[7],zeigen eine Wirkung
CC(C)[C@H](N)C(=O)N[C@H](C(=O)N[C@H](C(=O)N[C@H](C(=O)N[C@H](C(=O)N[C@H](C(=O)N[C@H](C(=O)O[Si](OC(=O)[C@@H](NC(=O)[C@@H](NC(=O)[C@@H](NC(=O)[C@@H](NC(=O)[C@@H](NC(=O)[C@@H](NC(=O)[C@@H](N)C(C)C)C(C)C)C(C)C)C(C)C)C(C)C)C(C)C)C(C)C)(c1ccccc1)c1ccccc1)C(C)C)C(C)C)C(C)C)C(C)C)C(C)C)C(C)C [Diphenyl bis(heptavalyl)silylester] (I: H-VVVVVVV / II: H-VVVVVVV; linker I:C-II:C via X2),Wirkung gegen Angiosarkome,[7],zeigen eine Wirkung
"CCCCCCCCCCCCC(=O)O[Si](C)(C)OC(=O)CCCCCCCCCCCC [Si 3, Di (tridecanoyloxy) dimethylsilan]",IC50,"[8]; BXPC-3, read-out: IC50 BxPC3",80 µg/mL
same,IC50,[9],80 µg/mL
same,IC50,[10]; [12],230 µg/mL
same,Wirkung gegen die Metastasierung von Plattenepihtelkarzinomen oder Plasmozytomen,[6],zeigen eine Wirkung
Diethyl bis(biphenylalanyl)silylester,Wirkung auf Lymphome,[11],zeigen eine Wirkung
"CCCCCCCCCCC(=O)O[Si](CC)(CC)OC(=O)CCCCCCCCCC [Si 4, Di (undecanoyloxy) diethylslan]",IC50,[8]; [13],100 µg/mL
same,IC50,[9]; up to 500 µg/ml,180 µg/mL
same,IC50,[10]; [14],200 µg/mL
same,Wirkung gegen die Metastasierung von Plattenepihtelkarzinomen oder Plasmozytomen,[6],zeigen eine Wirkung
CCCCC/C=C\C/C=C\CCCCCCCC(=O)O[Si](OC(=O)CCCCCCC/C=C\C/C=C\CCCCC)(c1ccccc1)c1ccccc1 [Di (linoylooxy)diphenylsilan],Wirkung auf Osteosarkome,[1],zeigen eine Wirkung
same,Wirkung gegen Rhino-Viren,[2],zeigen eine Wirkung
CCCCCCCC(=O)O[Si](CC)(CC)OC(=O)CCCCCCC [Di(octanoyloxy)diethylsilan],Wirkung gegen die Metastasierung von Plattenepihtelkarzinomen oder Plasmozytomen,[6],zeigen eine Wirkung
C[Si](C)(OC(=O)[C@H](Cc1ccccc1)NC(=O)[C@H](Cc1ccccc1)NC(=O)[C@H](Cc1ccccc1)NC(=O)[C@H](Cc1ccccc1)NC(=O)[C@H](Cc1ccccc1)NC(=O)[C@H](Cc1ccccc1)NC(=O)[C@H](Cc1ccccc1)NC(=O)[C@@H](N)Cc1ccccc1)OC(=O)[C@H](Cc1ccccc1)NC(=O)[C@H](Cc1ccccc1)NC(=O)[C@H](Cc1ccccc1)NC(=O)[C@H](Cc1ccccc1)NC(=O)[C@H](Cc1ccccc1)NC(=O)[C@H](Cc1ccccc1)NC(=O)[C@H](Cc1ccccc1)NC(=O)[C@@H](N)Cc1ccccc1 [Dimethyl bis(octaphenylalanyl)silylester] (I: H-FFFFFFFF / II: H-FFFFFFFF; linker I:C-II:C via X1),Wirkung auf Lymphome,[11],zeigen eine Wirkung
CC[Si](CC)(OC(=O)CNC(=O)CNC(=O)CNC(=O)CNC(=O)CNC(=O)CNC(=O)CNC(=O)CN)OC(=O)CNC(=O)CNC(=O)CNC(=O)CNC(=O)CNC(=O)CNC(=O)CNC(=O)CN [Diethyl bis(octablycyl)silylester] (I: H-GGGGGGGG / II: H-GGGGGGGG; linker I:C-II:C via OSiEt2O),Wirkung gegen Angiosarkome,[7],zeigen eine Wirkung
CCCCCCCCCCCC(=O)O[Si](CCC)(CCC)OC(=O)CCCCCCCCCCC [Di(dodecanoyloxy)dipropylsilan],Wirkung gegen Angiosarkome,[3],zeigen eine Wirkung
same,Wirkung auf Seminome,[4],zeigen eine Wirkung
same,Wirkung gegen Hepatitis B-Viren,[5],zeigen eine Wirkung
"CCCCCCCCCCC(=O)O[Si](C)(C)OC(=O)CCCCCCCCCC [Si 2, Di (undecanoyloxy) dimethylsilan]",IC50,[8]; [13],80 µg/mL
same,IC50,[9]; up to 500 µg/ml,125 µg/mL
same,IC50,[10]; [14],125 µg/mL
same,Wirkung gegen die Metastasierung von Plattenepihtelkarzinomen oder Plasmozytomen,[6],zeigen eine Wirkung
CCCCCCCCCCCCCCC(=O)O[Si](C)(C)OC(=O)CCCCCCCCCCCCCC [Di(pentadecanoyloxy)dimethylsilan],Wirkung gegen die Metastasierung von Plattenepihtelkarzinomen oder Plasmozytomen,[6],zeigen eine Wirkung
"CCCCCCCCCCCCC(=O)O[Si](OC(=O)CCCCCCCCCCCC)(c1ccccc1)c1ccccc1 [Si 7, Di (tridecanoyloxy) diphenylslan]",IC50,[8]; [13],60 µg/mL
same,IC50,[9]; up to 500 µg/ml,80 µg/mL
same,IC50,[10]; [14],125 µg/mL
same,Wirkung auf Osteosarkome,[1],zeigen eine Wirkung
same,Wirkung gegen Rhino-Viren,[2],zeigen eine Wirkung
"CCCCCCCCCC(=O)O[Si](CC)(CC)OC(=O)CCCCCCCCC [Si 12, Di (decanoyloxy) diethylsilan]",IC50,"[8]; BXPC-3, read-out: IC50 BxPC3",140 µg/mL
same,IC50,[9],600 µg/mL
same,IC50,[10]; [12],300 µg/mL
same,Wirkung gegen die Metastasierung von Plattenepihtelkarzinomen oder Plasmozytomen,[6],zeigen eine Wirkung
CCCCCCCCCCCCCCCCC(=O)O[Si](C)(C)OC(=O)CCCCCCCCCCCCCCCC [Di(heptadecanoyloxy)dimethylslan],Wirkung gegen die Metastasierung von Plattenepihtelkarzinomen oder Plasmozytomen,[6],zeigen eine Wirkung
CCCCCCCCCCCCC(=O)O[Si](CCC)(CCC)OC(=O)CCCCCCCCCCCC [Di(tridecanoyloxy)dipropylsilan],Wirkung gegen Angiosarkome,[3],zeigen eine Wirkung
same,Wirkung auf Seminome,[4],zeigen eine Wirkung
same,Wirkung gegen Hepatitis B-Viren,[5],zeigen eine Wirkung
CCCCCCCC/C=C\CCCCCCCC(=O)O[Si](OC(=O)CCCCCCC/C=C\CCCCCCCC)(c1ccccc1)c1ccccc1,Wirkung auf Osteosarkome,[1],zeigen eine Wirkung
same,Wirkung gegen Rhino-Viren,[2],zeigen eine Wirkung
CCCCCCCCCCC(=O)O[Si](OC(=O)CCCCCCCCCC)(c1ccccc1)c1ccccc1 [Di(undecanoyloxy)diphenylsilan],Wirkung auf Osteosarkome,[1],zeigen eine Wirkung
same,Wirkung gegen Rhino-Viren,[2],zeigen eine Wirkung
CC(C)[C@H](N)C(=O)N[C@H](C(=O)N[C@H](C(=O)N[C@H](C(=O)N[C@H](C(=O)O[Si](OC(=O)[C@@H](NC(=O)[C@@H](NC(=O)[C@@H](NC(=O)[C@@H](NC(=O)[C@@H](N)C(C)C)C(C)C)C(C)C)C(C)C)C(C)C)(c1ccccc1)c1ccccc1)C(C)C)C(C)C)C(C)C)C(C)C [Diphenyl bis(pentavalyl)silylester],Wirkung gegen Angiosarkome,[7],zeigen eine Wirkung
